Results published in patent publication US12616676B2, “Preparation method and use of modified hydrophobic excipient” (ZHEJIANG ZHIDA PHARMACEUTICAL CO., LTD., priority 2019, dated 2026).
Read-outs that look alike come from different tables or passages of the source.

Assay: solubility of paclitaxel in olive oil, castor oil and hydrophobic excipients (crystal formation after drying)
Format: physicochemical
Protocol: The specific experimental method was as follows. […] The chloroform solution was mixed with 0.5 ml of chloroform, from which 0.5 ml of diluent was taken and two-fold serial dilution was performed by using chloroform. Then 0.5 ml of a chloroform solution of paclitaxel (10 mg/ml) was added to the above-mentioned sample after the two-fold serial dilution, and then left in a hood to be naturally volatilized overnight. Crystal formation in the dried sample was observed and recorded.

Compound | solubility of paclitaxel compared with olive oil and castor oil (data comparison in table 1) | solubility of paclitaxel (crystal formation in the dried sample) (hydrophobic excipient 0.98 mg, 0.5 ml chloroform solution of paclitaxel (10 mg/ml), volatilized overnight) | solubility of paclitaxel (crystal formation in the dried sample) (hydrophobic excipient 1.95 mg, 0.5 ml chloroform solution of paclitaxel (10 mg/ml), volatilized overnight) | solubility of paclitaxel (crystal formation in the dried sample) (hydrophobic excipient 3.90 mg, 0.5 ml chloroform solution of paclitaxel (10 mg/ml), volatilized overnight) | solubility of paclitaxel (crystal formation in the dried sample) (hydrophobic excipient 7.81 mg, 0.5 ml chloroform solution of paclitaxel (10 mg/ml), volatilized overnight) | solubility of paclitaxel (crystal formation in the dried sample) (hydrophobic excipient 15.65 mg, 0.5 ml chloroform solution of paclitaxel (10 mg/ml), volatilized overnight) | solubility of paclitaxel (crystal formation in the dried sample) (hydrophobic excipient 31.30 mg, 0.5 ml chloroform solution of paclitaxel (10 mg/ml), volatilized overnight) | solubility of paclitaxel (crystal formation in the dried sample) (hydrophobic excipient 62.50 mg, 0.5 ml chloroform solution of paclitaxel (10 mg/ml), volatilized overnight) | solubility of paclitaxel (crystal formation in the dried sample) (hydrophobic excipient 125.00 mg, 0.5 ml chloroform solution of paclitaxel (10 mg/ml), volatilized overnight) | solubility of paclitaxel (crystal formation in the dried sample) (hydrophobic excipient 250.00 mg, 0.5 ml chloroform solution of paclitaxel (10 mg/ml), volatilized overnight) | solubility of paclitaxel (crystal formation in the dried sample)
CCCCCCCC/C=C\CCCCCCCCNC(=O)CC[C@@H](C)[C@H]1CC[C@H]2[C@@H]3[C@H](OC(=O)CNC(=O)[C@H](CCCCNC(=O)OC(C)(C)C)NC(=O)OCC4c5ccccc5-c5ccccc54)C[C@@H]4C[C@H](OC(=O)CNC(=O)[C@H](CCCCNC(=O)OC(C)(C)C)NC(=O)OCC5c6ccccc6-c6ccccc65)CC[C@]4(C)[C@H]3C[C@H](OC(=O)CNC(=O)[C@H](CCCCNC(=O)OC(C)(C)C)NC(=O)OCC3c4ccccc4-c4ccccc43)[C@]12C [Example 4] | greater than that in olive oil and castor oil | + | + | + | +/− | − | − | − | − | − | 
castor oil |  |  |  |  |  |  |  |  |  |  | +
